One test has as its system plasma cholesterol. Put plainly: Plasma cholesterol in cholesterol-cholic acid fed rats. It is filed as in vivo. Conditions: Rattus norvegicus, oral gavage. As to the method: In addition, representative compounds were studied in vivo in cholesterol-cholic acid fed rats to determine the percent decrease of cholesterol in their plasma. This study involves rats which are, prior to testing, trained for one week to eat over a four hour time period each day. Upon initiation of the experiment, the rats diet is supplemented with 1.0 percent cholesterol and 0.25 percent cholic acid. The rats are dosed with the test compound by oral gavage just prior to adjust following the four hour feeding period. This is repeated for four days. On the fifth day, the rats are sacrificed and the total plasma cholesterol content is determined. The percent decrease in elevated plasma cholesterol levels is calculated in comparison with […].

In test [1] the test system is acyl-coenzyme A: cholesterol acyltransferase. Nature of the test: Inhibition of ACAT / intracellular cholesterol esterification in vitro (procedure of Ross et al.). It is filed as cell-based. Conditions: for IC50: read-out: IC50.
The mark [2] stands for this setting: 96 h, four days, read-out: % Decrease in Plasma Cholesterol.

What is called % Inhibition is the change of the read-out against control, counted positive when it falls. A high value points to strong suppression. Usually IC50 stands for the midpoint of a concentration-inhibition curve. With `COc1ccc(NC(=C2C(=O)OC(C)(C)OC2=O)N(Cc2ccc(CC(C)C)cc2)C(C)CCCC(C)C)c(OC)c1` (centres unmarked) [Compound 39, 5-[[(2,4-Dimethoxyphenyl)amino][(1,5-dimethylhexyl)[[4-(2-methylpropyl)phenyl]methyl]amino]methylene]-2,2-dimethyl-1,3-dioxane-4,6-dione], the change in vivo at 40 mg/kg in the test with plasma cholesterol (setting [2]) is -65%. Further, in test [1] (25 μM), the “% Inhibition” value was found to be 99%. Besides, the IC50 in test [1] was 370 nM.
For `CCCCCCC(CCCCCC)N(Cc1ccc(CC(C)C)cc1)C(Nc1ccc(N(C)C)cc1)=C1C(=O)OC(C)(C)OC1=O` [Compound 36], the change in vivo at 20 mg/kg in the test on plasma cholesterol (setting [2]) is -62%. Further, in test [1] (26 μM), the “% Inhibition” value was 99%. In addition, the IC50 in test [1] was 44 nM.
As usually defined, the ED50 is the dose at which the effect has come halfway, by size or by number of responders. As to `CCCCCCCN(Cc1ccc(CCCCC)cc1)C(Nc1ccc(OC)cc1OC)=C1C(=O)OC(C)(C)OC1=O` [Compound 14, 5-[[(2,4-Dimethoxyphenyl)amino][heptyl[(4-pentylphenyl)methyl]amino]methylene]-2,2-dimethyl-1,3-dioxane-4,6-dione], the change in vivo at 100 mg/kg in the test on plasma cholesterol (setting [2]) was -85%. Moreover, the ED50 in the test with plasma cholesterol (fifty percent reduction of plasma cholesterol) was determined as 16 mg/kg. Besides, in test [1] (25 μM), the “% Inhibition” value is 99%. In addition, in test [1], the IC50 is 840 nM.
In the case of `CCCCCc1ccc(CN(C(Nc2ccc(N(C)C)cc2C)=C2C(=O)OC(C)(C)OC2=O)C(C)CCCCC)cc1` (centres unmarked) [Compound 54, 5-[[[4-(Dimethylamino)-2-methylphenyl]amino][(1-methylhexyl)[(4-pentylphenyl)methyl]-amino]methylene]-2,2-dimethyl-1,3-dioxane-4,6-dione], the change in vivo at 20 mg/kg with plasma cholesterol (setting [2]) was -77%. Moreover, the “% Inhibition” value in test [1] (25 μM) was 98%. For the same compound, the IC50 in test [1] was 680 nM.
Turning to `CCCCCCCN(Cc1ccc(OCCC(C)C)cc1)C(Nc1ccc(OC)cc1OC)=C1C(=O)OC(C)(C)OC1=O` [Compound 6, 5-[[(2,4-Dimethoxyphenyl)amino][heptyl[[4-[(3-methylbutyl)oxy]phenyl]methyl]amino]-methylene]-2,2-dimethyl-1,3-dioxane-4,6-dione], the change in vivo at 100 mg/kg in the test on plasma cholesterol (setting [2]) is -42%. For the same compound, the “% Inhibition” value in test [1] (25 μM) was determined as 99%. For the same compound, the IC50 in test [1] stood at 1500 nM.
As to `CCCCCC(C)N(Cc1ccc(CC(C)C)cc1)C(Nc1cccc(OCc2ccccc2)c1)=C1C(=O)OC(C)(C)OC1=O` (centres unmarked) [Compound 34], the change in vivo at 20 mg/kg in the test on plasma cholesterol (setting [2]) is -32%. For the same compound, the “% Inhibition” value in test [1] (25 μM) is reported as 98%. Besides, the half-maximal inhibitory concentration (IC50) in test [1] worked out at 1100 nM.
`CCCCCCCN(Cc1ccc(OCCC(C)C)cc1)C(Nc1ccc(N(C)C)cc1)=C1C(=O)OC(C)(C)OC1=O` [Compound 22, 5-[[[4-(Dimethylamino)phenyl]amino][heptyl[[[4-(3-methylbutyl)oxy]phenyl]methyl]amino]-methylene]-2,2-dimethyl-1,3-dioxane4,6-dione]: the change in vivo at 60 mg/kg with plasma cholesterol (96 h, four days, 60 mg/kg, read-out: % Decrease in Plasma Cholesterol) is -46%. For the same compound, the “% Inhibition” value in test [1] (25 μM) is 93%. The IC50 in test [1] came out at 370 nM.
On to `CCCCc1ccc(CN(C(Nc2ccc(N(C)C)cc2)=C2C(=O)OC(C)(C)OC2=O)C(C)CCCC(C)(C)O)cc1` (centres unmarked) [Compound 45, 5-[[[(4-Butylphenyl)methyl](5-hydroxy-1,5-dimethylhexyl)amino][[4-(dimethylamino)phenyl]-amino]-methylene]-2,2-dimethyl-1,3-dioxane-4,6-dione], for which, in the test on plasma cholesterol (setting [2]), the change in vivo at 20 mg/kg is -29%. Further, in test [1] (25 μM), the “% Inhibition” value was 90%. For the same compound, the IC50 in test [1] stood at 5200 nM.
Consider `COc1ccc(NC(=C2C(=O)OC(C)(C)OC2=O)N(Cc2ccc(C(C)(C)C)cc2)C(C)CCCC(C)C)c(OC)c1` (centres unmarked) [Compound 29, 5-[[(2,4-Dimethoxyphenyl)amino][[[4-(1,1-dimethylethyl)phenyl]methyl](1,5-dimethylhexyl)-amino]methylene]-2,2-dimethyl-1,3-dioxane-4,6-dione], for which the change in vivo at 100 mg/kg in the test on plasma cholesterol (setting [2]) is -84%. The “% Inhibition” value in test [1] (25 μM) came to 99%. Moreover, the IC50 in test [1] was determined as 230 nM.
Turning to `CCCCOc1ccc(NC(=C2C(=O)OC(C)(C)OC2=O)N(Cc2ccc(C(C)(C)C)cc2)C(C)CCCC(C)C)cc1` (centres unmarked) [Compound 28, 5-[[(4-Butoxyphenyl)amino][[[4-(1,1-dimethylethyl)phenyl]methyl](1,5-dimethylhexyl)amino]-methylene]-2,2-dimethyl-1,3-dioxane-4,6-dione], in the test with plasma cholesterol (setting [2]), the change in vivo at 40 mg/kg was -15%. In test [1] (25 μM), the “% Inhibition” value is listed as 98%. The IC50 in test [1] is 690 nM.
Take `CCCCCC(C)N(Cc1ccc(OCCC(C)C)cc1)C(Nc1ccc(OC)cc1OC)=C1C(=O)OC(C)(C)OC1=O` (centres unmarked) [Compound 35]: in the test with plasma cholesterol (setting [2]), the change in vivo at 40 mg/kg is -55%. Also, the “% Inhibition” value in test [1] (25 μM) worked out at 99%. Besides, the IC50 in test [1] is 540 nM.
As for `CCCCCCN(CCCCCC)C(Nc1ccc(OC)cc1OC)=C1C(=O)OC(C)(C)OC1=O` [Compound 1, 5-[(Dihexylamino)[(2,4-dimethoxyphenyl)amino]methylene]-2,2-dimethyl-1,3-dioxane-4,6-dione], the “% Inhibition” value in test [1] (50 μM) stood at 65%.
As to `COc1ccc(NC(=C2C(=O)OC(C)(C)OC2=O)N(Cc2ccc(CC(C)C)cc2)[C@@H](CO)CC(C)C)c(OC)c1` [Compound 74, (R)-5-[[(2,4-Dimethoxyphenyl)amino][[1-(hydroxymethyl)-3-methylbutyl][[4-(2-methylpropyl)-phenyl]methyl]amino]methylene]-2,2-dimethyl-1,3-dioxane-4,6,-dione], in test [1] (concentration not given), the “% Inhibition” value was 97%. The IC50 in test [1] is 290 nM.
Regarding `CCCCCC(C)N(Cc1ccc(C(C)(C)C)cc1)C(Nc1cc(OC)c(OC)c(OC)c1)=C1C(=O)OC(C)(C)OC1=O` (centres unmarked) [Compound 20], in test [1] (25 μM), the “% Inhibition” value is 96%. In addition, in test [1], the 50% inhibitory concentration (IC50) is 770 nM.
`CCCCC(CC)N(Cc1ccc(CC(C)(C)C)cc1)C(Nc1ccc(N(C)C)cc1C)=C1C(=O)OC(C)(C)OC1=O` (centres unmarked) [Compound 66, 5-[[[4-(Dimethylamino)-2-methylphenyl]amino][[[4-(2,2-dimethylpropyl)phenyl]methyl](1-ethylpentyl)amino]methylene]-2,2-dimethyl-1,3-dioxane-4,6-dione]: in test [1] (25 μM), the “% Inhibition” value worked out at 98%. For the same compound, in test [1], the IC50 is 190 nM.
On to `COc1ccc(NC(=C2C(=O)OC(C)(C)OC2=O)N(Cc2ccc(CC(C)C)cc2)[C@@H](CO)Cc2ccccc2)c(OC)c1` [Compound 12, (R)-5-[[(2,4-Dimethoxyphenyl)amino][[(1R)1-(hydroxymethyl)-2-phenylethyl][[4-(2-methyl-propyl)phenyl]methyl]amino]methylene]-2,2-dimethyl-1,3-dioxane-4.6-dione], for which the “% Inhibition” value in test [1] (25 μM) was 96%.
For `CCCCCCCN(Cc1ccc(C(C)(C)C)cc1)C(Nc1c(C)cc(N(C)C)cc1C)=C1C(=O)OC(C)(C)OC1=O` [Compound 16, 5-[[[4-(Dimethylamino)-2,6-dimethylphenyl]amino][[[4-(1,1-dimethylethyl)phenyl]methyl]heptylamino]methylene]-2,2-dimethyl-1,3-dioxane-4,6-dione], in test [1] (25 μM), the “% Inhibition” value is given as 84%. Also, in test [1], the IC50 worked out at 980 nM.
With `CCCCCCCN(Cc1ccc(C(C)(C)C)cc1)C(Nc1ccc(C(F)(F)F)cc1)=C1C(=O)OC(C)(C)OC1=O` [Compound 30, 5-[[[[4-(1,1-Dimethylethyl)phenyl]methyl]heptylamino][[4-(trifluoromethyl)phenyl]amino]-methylene]-2,2-dimethyl-1,3-dioxane-4,6-dione], the “% Inhibition” value in test [1] (25 μM) is 42%.
As to `CCCCCC(C)N(Cc1ccc(CCC(C)C)cc1)C(Nc1ccc(N(C)C)cc1C)=C1C(=O)OC(C)(C)OC1=O` (centres unmarked) [Compound 61], the “% Inhibition” value in test [1] (25 μM) is 98%. In addition, in test [1], the 50% inhibitory concentration (IC50) was determined as 160 nM.

These data come from US5399697A, “N,N',N'-trisubstituted-5-bisaminomethylene-1,3-dioxane-4,6-dione inhibitors of acyl-CoA:cholesterol-acyl transferase” (American Home Products Corporation, priority 1993, dated 1995).
